The source of these data is patent publication US20160009686A1, “VEGFR3 INHIBITORS” (CANCER THERAPEUTICS CRC PTY LIMITED, priority 2012, published 2016).

In assay [1] the target is VEGFR3 cytoplasmic domain (Homo sapiens, UniProt P35916). The experiment in a line: VEGFR3 Biochemical Assay (AlphaScreen). The note with it: GST-fusion enzyme, 500 μM ATP, 90 minutes at 30 degree Celsius (modified form in some cases: Hexa-His-fusion enzyme, 1 μM ATP); read-out: IC50.
Assay [2] deals with VEGFR3 (Homo sapiens, UniProt P35916). The assay can be described thus: VEGFR3 Phospho ELISA Assay. It counts as cell-based. The note with it: HMVEC-dLyAD cells, treated for 1 hour, VEGFC stimulated; phospho VEGFR3 relative to Total VEGFR3. (In general: An ELISA detects its analyte on a solid surface through an enzyme-linked reagent.)
Chain of VEGFR3 (P35916 25-1363): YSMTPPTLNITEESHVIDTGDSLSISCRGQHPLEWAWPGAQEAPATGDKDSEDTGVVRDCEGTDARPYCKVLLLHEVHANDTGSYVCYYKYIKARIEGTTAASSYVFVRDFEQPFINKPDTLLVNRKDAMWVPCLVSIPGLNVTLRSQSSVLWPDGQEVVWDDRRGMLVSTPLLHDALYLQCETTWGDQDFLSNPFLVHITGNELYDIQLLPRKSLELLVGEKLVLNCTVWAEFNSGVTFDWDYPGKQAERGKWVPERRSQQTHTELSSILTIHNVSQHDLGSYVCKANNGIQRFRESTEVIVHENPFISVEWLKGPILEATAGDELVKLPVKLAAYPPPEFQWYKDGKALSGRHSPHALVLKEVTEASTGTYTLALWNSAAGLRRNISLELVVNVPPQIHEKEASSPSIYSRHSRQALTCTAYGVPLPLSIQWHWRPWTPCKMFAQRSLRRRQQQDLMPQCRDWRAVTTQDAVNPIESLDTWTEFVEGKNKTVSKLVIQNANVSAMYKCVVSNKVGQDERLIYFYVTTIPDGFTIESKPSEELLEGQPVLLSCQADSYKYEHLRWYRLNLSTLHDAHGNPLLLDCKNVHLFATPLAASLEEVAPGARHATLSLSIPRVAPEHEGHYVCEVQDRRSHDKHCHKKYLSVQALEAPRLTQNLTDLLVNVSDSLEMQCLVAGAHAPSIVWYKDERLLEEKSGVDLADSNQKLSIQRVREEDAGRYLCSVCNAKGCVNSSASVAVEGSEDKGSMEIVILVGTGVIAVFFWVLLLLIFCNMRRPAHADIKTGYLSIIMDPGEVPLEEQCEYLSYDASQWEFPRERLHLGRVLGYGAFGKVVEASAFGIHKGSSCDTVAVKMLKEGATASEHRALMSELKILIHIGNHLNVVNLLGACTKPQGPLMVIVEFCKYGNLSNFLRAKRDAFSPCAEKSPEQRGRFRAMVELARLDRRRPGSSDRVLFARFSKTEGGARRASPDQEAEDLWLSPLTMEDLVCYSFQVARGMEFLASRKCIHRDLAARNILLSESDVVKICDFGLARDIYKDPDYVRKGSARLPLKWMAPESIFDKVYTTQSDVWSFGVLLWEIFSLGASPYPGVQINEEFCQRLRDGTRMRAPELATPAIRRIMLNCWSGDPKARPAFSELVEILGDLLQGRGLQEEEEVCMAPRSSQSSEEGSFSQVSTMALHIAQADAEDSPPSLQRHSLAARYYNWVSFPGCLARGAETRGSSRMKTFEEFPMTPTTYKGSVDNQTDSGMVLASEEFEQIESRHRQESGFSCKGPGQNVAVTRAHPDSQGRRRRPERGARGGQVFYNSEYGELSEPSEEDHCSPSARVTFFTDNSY
Experimental: Adult human dermal lymphatic microvascular endothelial cells (HMVEC-dLyAD) (Cat# CC-2810, Lonza) were seeded into clear-bottom, TC treated 12 well plates (Cat #665180, Greiner Bio-One) in EGM-2MV (Cat# CC-3202, Lonza) at 180,000 cells/well (volume 1 mL), and the plates incubated at 37° C. and 5% CO2 for 6 hours.
96 well Maxisorp immuno plates (Cat #439454, Nunc) were coated with 100 μL of Total VEGFR3 capture antibody (Part #841888, Human Total VEGFR3/FLT4 ELISA Kit, Cat # DYC3491, R&D Systems), or Phospho VEGFR3 Capture antibody (Part #841885, Human Phospho VEGFR3/FLT4 ELISA Kit, Cat# DYC2724, R&D Systems). The plates were covered and incubated at room temperature overnight.
The coating antibody was flicked out and the plates washed three times with Wash Buffer (Phosphate buffered saline (137 mM NaCl, 2.7 nM KCl, 8.1 nM Na2HPO4, 1.5 mL KH2PO4, pH 7.2-7.4), 0.05% Tween 20). 300 μL of blocking buffer (5% v/v Tween 20, 5% w/v sucrose in PBS) was then added to wells and plate incubated for 2 hours at room temperature. Blocking solution is flicked out and plates washed three times and tapped dry.
Compound dilution series were prepared in EBM-2 (Cat # CC-3156, Lonza)+0.1% BSA (Cat# A8412, Sigma) with constant 0.1% DMSO concentration. 439 μL of sample or vehicle control was added to the cell monolayers. Cells are treated for 1 hour at 37° C. and 5% CO2. 250 ng/mL Recombinant human VEGFC (Cat #2179-VC, R & D Systems) added to wells and plates incubated for an additional 10 minutes at 37° C. and 5% CO2.
(§1) The media and compounds were removed and the cell monolayer washed once in Dulbecco's Phosphate Buffered Saline (Cat #21600-044, Invitrogen). 130 μL of Lysis buffer added to wells and cell lysate harvested and transferred to tubes and stored on ice. Complete lysis buffer was prepared by adding 10 μL Protease Inhibitor Cocktail (Cat # P8340, Sigma-Aldrich), 10 μL PMSF (Phenylmethanesulfonyl fluoride, Cat # P7626, Sigma-Aldrich, prepared as 500 mM DMSO stock) per 1 mL of Phosphosafe™ Extraction Reagent (Cat #71296, Merck).
The harvested samples were then diluted 1:2 in IC Diluent #18 (5% Tween 20/PBS) and 100 μL transferred to the Total and Phospho VEGFR3 coated, blocked and washed 96 well plates and incubated for 2 hours at room temperature. The plates were then washed three times in wash buffer as described above and tapped dry. For detection of Total VEGFR3 100 μL of Detection antibody (Total VEGFR3 Detection Antibody Part#841888 in Total VEGFR3 kit) diluted in IC Diluent #1 (1% w/v BSA (Cat # A7906, Sigma-Aldrich)/PBS) was added to wells and the plate incubated for 2 hours at room temperature. The plate was then washed three times in wash buffer and tapped dry. 100 μL of streptavidin-HPR diluted in IC diluent #1 Streptavidin-HRP, Part #890803 in Total VEGFR3 kit) was added to wells and incubated at room temperature for 20 minutes followed by washing as described above. 100 μL Substrate solution (3,3′,5,5′-Tetramethylbenzidine (TMB) Liquid Substrate System for ELISA, Cat # T0440, Sigma-Aldrich) was added and the plate incubated for 20 minutes in the dark at room temperature followed by the addition of 50 μL stop solution (2 M H2SO4).
Total VEGFR3 levels were quantified using a Multiskan Ascent plate reader and Ascent software fitted with 450 nm filter.
For detection of Phospho VEGFR3, 100 μL of Detection antibody (Anti-Phospho-Tyrosine-HRP Detection Antibody, Part #841403 in Phospho VEGFR3 kit) was diluted in IC Diluent #1 (1% w/v BSA/PBS), added to the wells and the plate incubated for 2 hours at room temperature. The plate was then washed three times in wash buffer as described above and tapped dry. 100 μL Substrate solution (3,3′,5,5′-Tetramethylbenzidine (TMB) Liquid Substrate System for ELISA, Cat # T0440, Sigma-Aldrich) was added and the plate incubated for 20 minutes in the dark at room temperature followed by the addition of 50 μL stop solution (2 M H2SO4).
Assay [3] concerns the target T1, VEGFR2 (Homo sapiens, UniProt P35968).
T1 construct: host or cells: HUVEC
The assay can be described thus: VEGFR2 Phospho ELISA Assay. The class given is cell-based. The note with it: HUVEC, treated for 1 hour, VEGF stimulated; phospho VEGFR2 relative to Total VEGFR2.
Experimental: Adult human umbilical vein endothelial cells (HUVEC) (Cat# CC-2519, Lonza) were seeded into clear-bottom, TC treated 12 well plates (Cat #665180, Greiner Bio-One) in EGM-2 (Cat# CC-3162, Lonza) at 180,000 cells/well (volume 1 mL), and the plates incubated at 37° C. and 5% CO2 for 6 hours.
96 well Maxisorp immuno plates (Cat #439454, Nunc) were coated with 100 μL of Total VEGFR2 capture antibody (Part #841434, Human Total VEGFR2/FLT4 ELISA Kit, Cat # DYC1780, R&D Systems), or Phospho VEGFR2 Capture antibody (Part #841419, Human Phospho VEGFR2/FLT4 ELISA Kit, Cat# DYC1766, R&D Systems). The plates were covered and incubated at room temperature overnight.
The coating antibody was flicked out and the plates washed three times with Wash Buffer (Phosphate buffered saline (137 mM NaCl, 2.7 nM KCl, 8.1 nM Na2HPO4, 1.5 mL KH2PO4, pH 7.2-7.4), 0.05% Tween 20). 300 μL of Blocking buffer (1% v/v BSA (Cat# A8412, Sigma) in PBS) was then added to wells and plate incubated for 2 hours at room temperature. Blocking solution is flicked out and plates washed three times and tapped dry.
Compound dilution series were prepared in EBM-2 (Cat # CC-3156, Lonza)+0.1% BSA (Cat# A8412, Sigma) with constant 0.1% DMSO concentration. 427.5 μL of sample or vehicle control was added to the cell monolayers. Cells are treated for 1 hour at 37° C. and 5% CO2. 50 ng/mL Recombinant human VEGF (Cat #293-VC, R & D Systems) added to wells and plates incubated for an additional 10 minutes at 37° C. and 5% CO2.
as §1
The plates were then washed three times in wash buffer as described above and tapped dry.
For detection of Total VEGFR2 100 μL of Detection antibody (Total VEGFR2 Detection Antibody Part#841435 in Total VEGFR2 kit) diluted in IC Diluent #14 (20 mM Tris, 137 mM CaCl2, 0.05% Tween20, 0.1% BSA) was added to wells and the plate incubated for 2 hours at room temperature. The plate was then washed three times in wash buffer and tapped dry. 100 μL of streptavidin-HPR diluted in IC diluent #14 Streptavidin-HRP, Part #890803 in Total VEGFR2 kit) was added to wells and incubated at room temperature for 20 minutes followed by washing as described above. 100 μL Substrate solution (3,3′,5,5′-Tetramethylbenzidine (TMB) Liquid Substrate System for ELISA, Cat # T0440, Sigma-Aldrich) was added and the plate incubated for 20 minutes in the dark at room temperature followed by the addition of 50 μL stop solution (2 M H2SO4).
Total VEGFR2 levels were quantified using a Multiskan Ascent plate reader and Ascent software fitted with 450 nm filter.
For detection of Phospho VEGFR2, 100 μL of Detection antibody (Anti-Phospho-Tyrosine-HRP Detection Antibody, Part #841403 in Phospho VEGFR2 kit) was diluted in IC Diluent 14 (20 mM Tris, 137 mM CaCl2, 0.05% Tween20, 0.1% BSA), was added to the wells and the plate incubated for 2 hours at room temperature. The plate was then washed three times in wash buffer as described above and tapped dry. 100 μL Substrate solution (3,3′,5,5′-Tetramethylbenzidine (TMB) Liquid Substrate System for ELISA, Cat # T0440, Sigma-Aldrich) was added and the plate incubated for 20 minutes in the dark at room temperature followed by the addition of 50 μL stop solution (2 M H2SO4).
Phospho VEGFR2 levels were quantified using a Multiscan ascent plate reader and ascent software fitted with 450 nm filter.
IC50 values are determined by first calculating the level of phospho VEGFR2 relative to Total VEGFR2 according to the following formula:

T1 sequence (P35968 20-1356): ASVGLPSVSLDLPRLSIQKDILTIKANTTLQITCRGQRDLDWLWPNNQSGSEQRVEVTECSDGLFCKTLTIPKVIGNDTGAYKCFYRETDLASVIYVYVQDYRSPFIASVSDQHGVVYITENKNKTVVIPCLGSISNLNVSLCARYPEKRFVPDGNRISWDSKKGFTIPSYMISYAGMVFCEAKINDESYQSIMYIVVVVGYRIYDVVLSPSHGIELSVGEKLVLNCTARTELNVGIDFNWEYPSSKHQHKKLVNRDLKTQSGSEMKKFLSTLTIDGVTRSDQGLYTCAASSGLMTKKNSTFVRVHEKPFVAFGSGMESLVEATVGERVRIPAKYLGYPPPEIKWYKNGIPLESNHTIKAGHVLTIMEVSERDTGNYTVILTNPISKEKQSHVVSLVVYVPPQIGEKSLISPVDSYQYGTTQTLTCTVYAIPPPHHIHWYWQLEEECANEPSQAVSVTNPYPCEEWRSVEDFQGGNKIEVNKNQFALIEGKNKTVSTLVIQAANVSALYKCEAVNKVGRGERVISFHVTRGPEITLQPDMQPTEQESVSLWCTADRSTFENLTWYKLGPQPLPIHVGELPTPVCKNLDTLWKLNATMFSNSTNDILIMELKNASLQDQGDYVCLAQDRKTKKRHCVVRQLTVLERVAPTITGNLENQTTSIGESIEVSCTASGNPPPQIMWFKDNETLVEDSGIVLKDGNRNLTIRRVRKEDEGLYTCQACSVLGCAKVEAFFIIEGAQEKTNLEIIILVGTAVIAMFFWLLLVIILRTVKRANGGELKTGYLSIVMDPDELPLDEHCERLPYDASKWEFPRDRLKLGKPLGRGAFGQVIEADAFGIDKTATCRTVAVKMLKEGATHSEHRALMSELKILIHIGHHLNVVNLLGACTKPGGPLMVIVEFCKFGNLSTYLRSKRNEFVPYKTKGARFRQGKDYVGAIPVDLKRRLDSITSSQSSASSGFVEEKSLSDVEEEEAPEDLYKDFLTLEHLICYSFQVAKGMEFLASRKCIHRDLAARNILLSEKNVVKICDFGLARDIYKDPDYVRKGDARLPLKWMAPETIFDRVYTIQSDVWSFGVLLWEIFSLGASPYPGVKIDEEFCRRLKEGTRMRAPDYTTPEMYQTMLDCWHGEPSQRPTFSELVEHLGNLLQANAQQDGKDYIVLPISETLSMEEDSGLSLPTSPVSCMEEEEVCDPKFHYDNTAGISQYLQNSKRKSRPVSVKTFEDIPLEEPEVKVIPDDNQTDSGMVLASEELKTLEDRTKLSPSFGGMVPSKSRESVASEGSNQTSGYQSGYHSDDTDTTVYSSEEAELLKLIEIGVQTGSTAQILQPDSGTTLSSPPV
Chain of VEGFR3 cytoplasmic domain (P35916 798-1298 isoform P35916-1): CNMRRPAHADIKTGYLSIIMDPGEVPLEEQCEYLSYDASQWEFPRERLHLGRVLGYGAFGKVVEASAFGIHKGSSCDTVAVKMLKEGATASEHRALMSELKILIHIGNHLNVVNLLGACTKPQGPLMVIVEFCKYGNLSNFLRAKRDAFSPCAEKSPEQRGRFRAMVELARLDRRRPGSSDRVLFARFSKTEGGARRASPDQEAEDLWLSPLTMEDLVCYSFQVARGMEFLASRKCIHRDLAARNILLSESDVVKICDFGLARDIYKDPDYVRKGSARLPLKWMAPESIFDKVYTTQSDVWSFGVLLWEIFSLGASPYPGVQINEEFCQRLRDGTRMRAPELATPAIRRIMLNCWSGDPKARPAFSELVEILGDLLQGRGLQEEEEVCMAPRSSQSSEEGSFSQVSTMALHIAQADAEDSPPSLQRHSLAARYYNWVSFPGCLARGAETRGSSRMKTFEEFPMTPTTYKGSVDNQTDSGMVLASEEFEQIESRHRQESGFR

Take `CCC(C(N)=O)c1ccccc1CCc1nc(Nc2ccc(C3CCNCC3)cc2)ncc1C(F)(F)F` (single isomer, unassigned) [Compound 1-1A, 2-(2-(2-(2-((4-(Piperidin-4-yl)phenyl)amino)-5-(trifluoromethyl)pyrimidin-4-yl)ethyl)phenyl)butanamide]: the IC50 is 0.103 µM in assay [1] and 0.329 µM in assay [2].

Turning to `CCC(C(N)=O)c1ccccc1CCc1nc(Nc2ccc(C3CCNCC3)cc2)ncc1C(F)(F)F` (single isomer, unassigned) [Compound 1-2A, 2-(2-(2-(2-((4-(Piperidin-4-yl)phenyl)amino)-5-(trifluoromethyl)pyrimidin-4-yl)ethyl)phenyl)butanamide], the IC50 in assay [1] came to 0.075 µM; in assay [2] it was 0.315 µM.

`CC(C(N)=O)c1ccccc1CCc1nc(Nc2cnn(C3CCN(C)CC3)c2)ncc1C(F)(F)F` (single isomer, unassigned) [Compound 57-1A, 2-(2-(2-(2-((1-(1-Methylpiperidin-4-yl)-1H-pyrazol-4-yl)amino)-5-(trifluoromethyl)pyrimidin-4-yl)ethyl)phenyl)propanamide]: the half-inhibitory concentration (IC50) in assay [3] was found to be 0.518 µM.

Turning to `NC(=O)C1(c2ccccc2CCc2nc(Nc3ccc(C4CCNCC4)cc3)ncc2C(F)(F)F)CC1` [Compound 2, 1-(2-(2-(2-((4-(Piperidin-4-yl)phenyl)amino)-5-(trifluoromethyl)pyrimidin-4-yl)ethyl)phenyl)cyclopropanecarboxamide], the figures for the IC50 in assay [1], in assay [3] and in assay [2] were 0.01 µM, 0.283 µM and 0.026 µM, respectively.

Take `CN1CCC(c2ccc(Nc3ncc(C(F)(F)F)c(CCc4ccccc4C4(C(N)=O)CC4)n3)cc2)CC1` [Compound 3, 1-(2-(2-(2-((4-(1-methylpiperidin-4-yl)phenyl)amino)-5-(trifluoromethyl)pyrimidin-4-yl)ethyl)phenyl)cyclopropanecarboxamide]: the results for the IC50 in assay [1], in assay [3] and in assay [2] were 0.009 µM, 1.79 µM and 0.027 µM, respectively.

Turning to `NC(=O)C1(c2ccccc2CCc2nc(Nc3ccc(C4CCNCC4)nc3)ncc2C(F)(F)F)CC1` [Compound 5, 1-(2-(2-(2-((6-(Piperidin-4-yl)pyridin-3-yl)amino)-5-(trifluoromethyl)pyrimidin-4-yl)ethyl)phenyl)cyclopropanecarboxamide], the IC50 in assay [1] came to 0.028 µM; in assay [3] it was 4.08 µM; in assay [2] it was 0.051 µM.

`NC(=O)C1(c2ccccc2CCc2nc(Nc3cccnc3)ncc2Cl)CC1` [Compound 6, 1-(2-(2-(5-chloro-2-(pyridin-3-ylamino)pyrimidin-4-yl)ethyl)phenyl)cyclopropanecarboxamide]: the IC50 in assay [1] is 0.008 µM; in assay [3], 6.61 µM; in assay [2] it was 0.017 µM.

Turning to `NC(=O)C1(c2ccccc2CCc2nc(Nc3ccc(C4CCNCC4)cc3)ncc2Cl)CC1` [Compound 7, 1-(2-(2-(5-chloro-2-((4-(piperidin-4-yl)phenyl)amino)pyrimidin-4-yl)ethyl)phenyl)cyclopropanecarboxamide], the IC50 in assay [1] stood at 0.01 µM; in assay [2], 0.038 µM.

As to `CN1CCC(c2ccc(Nc3ncc(Cl)c(CCc4ccccc4C4(C(N)=O)CC4)n3)cc2)CC1` [Compound 8, 1-(2-(2-(5-chloro-2-((4-(1-methylpiperidin-4-yl)phenyl)amino)pyrimidin-4-yl)ethyl)phenyl)cyclopropanecarboxamide], the IC50 in assay [1] amounted to 0.01 µM; in assay [3], 0.897 µM; in assay [2], 0.019 µM.

For the compound `NC(=O)C1(c2ccccc2CCc2nc(Nc3ccc(C(F)(F)F)nc3)ncc2Cl)CC1` [Compound 9, 1-(2-(2-(5-chloro-2-((6-(trifluoromethyl)pyridin-3-yl)amino)pyrimidin-4-yl)ethyl)phenyl)cyclopropanecarboxamide], the IC50 in assay [1] was 0.026 µM; in assay [3] it was […]; in assay [2], 0.075 µM.

Turning to `Cn1cc(Nc2ncc(Cl)c(CCc3ccccc3C3(C(N)=O)CC3)n2)cn1` [Compound 13, 1-(2-(2-(5-Chloro-2-((1-methyl-1H-pyrazol-4-yl)amino)pyrimidin-4-yl)ethyl)phenyl)cyclopropanecarboxamide], the values for the IC50 in assay [1] and in assay [2] were 0.004 µM and 0.009 µM, respectively.

Consider `NC(=O)C1(c2ccccc2CCc2nc(Nc3cnn(C4CNC4)c3)ncc2Cl)CC1` [Compound 14, 1-(2-(2-(2-((1-(Azetidin-3-yl)-1H-pyrazol-4-yl)amino)-5-chloropyrimidin-4-yl)ethyl)phenyl)cyclopropanecarboxamide], for which the figures for the IC50 in assay [1], in assay [3] and in assay [2] were 0.006 µM, 0.357 µM and 0.03 µM, respectively.

Regarding `NC(=O)C1(c2ccccc2CCc2nc(Nc3ccc(C4CCNCC4)nc3)ncc2Cl)CC1` [Compound 15, 1-(2-(2-(5-Chloro-2-((6-(piperidin-4-yl)pyridin-3-yl)amino)pyrimidin-4-yl)ethyl)phenyl)cyclopropanecarboxamide], the IC50 is 0.011 µM in assay [1], 2 µM in assay [3] and 0.051 µM in assay [2].

Take `NC(=O)C1(c2ccccc2CCc2nc(Nc3cnn(C4CCNCC4)c3)ncc2Cl)CC1` [Compound 17, 1-(2-(2-(5-Chloro-2-((1-(piperidin-4-yl)-1H-pyrazol-4-yl)amino)pyrimidin-4-yl)ethyl)phenyl)cyclopropanecarboxamide]: the IC50 amounted to 0.009 µM in assay [1], 0.393 µM in assay [3] and 0.062 µM in assay [2].

Turning to `CN1CCC(n2cc(Nc3ncc(Cl)c(CCc4ccccc4C4(C(N)=O)CC4)n3)cn2)CC1` [Compound 18, 1-(2-(2-(5-chloro-2-((1-(1-methylpiperidin-4-yl)-1H-pyrazol-4-yl)amino)pyrimidin-4-yl)ethyl)phenyl)cyclopropanecarboxamide], the results for the IC50 in assay [1], in assay [3] and in assay [2] were 0.003 µM, 0.021 µM and 0.005 µM, respectively.

Turning to `NC(=O)C1(c2ccccc2CCc2nc(Nc3cn[nH]c3)ncc2Cl)CC1` [Compound 19, 1-(2-(2-(2-(1H-Pyrazol-4-ylamino)-5-chloropyrimidin-4-yl)ethyl)phenyl)cyclopropanecarboxamide], the figures for the IC50 in assay [1], in assay [3] and in assay [2] were 0.003 µM, 0.248 µM and 0.011 µM, respectively.

As for `NC(=O)C1(c2ccccc2CCc2nc(Nc3cnn(C4CCNC4)c3)ncc2Cl)CC1` (stereo not drawn) [Compound 20, 1-(2-(2-(5-Chloro-2-(1-(pyrrolidin-3-yl)-1H-pyrazol-4-ylamino)pyrimidin-4-yl)ethyl)phenyl)cyclopropanecarboxamide], the IC50 in assay [1] was 0.007 µM; in assay [3] it was 1.76 µM; in assay [2] it was 0.038 µM.

Turning to `CC(NC(=O)OC(C)(C)C)c1ccc(Nc2ncc(Cl)c(CCc3ccccc3C3(C(N)=O)CC3)n2)cc1` (stereo not drawn) [Compound 24, tert-Butyl (1-(4-((4-(2-(1-carbamoylcyclopropyl)phenethyl)-5-chloropyrimidin-2-yl)amino)phenyl)ethyl)carbamate], the values for the half-inhibitory concentration (IC50) in assay [1] and in assay [2] were 0.002 µM and 0.025 µM, respectively.

With `CC(N)c1ccc(Nc2ncc(Cl)c(CCc3ccccc3C3(C(N)=O)CC3)n2)cc1` (stereo not drawn) [Compound 24A, 1-(2-(2-(2-((4-(1-Aminoethyl)phenyl)amino)-5-chloropyrimidin-4-yl)ethyl)phenyl)cyclopropanecarboxamide], the IC50 in assay [1] was found to be 0.014 µM; in assay [3], 0.209 µM.

For `Cc1cnc(Nc2cnn(C)c2)nc1CCc1ccccc1C(C)C(N)=O` (stereo not drawn) [Compound 51, 2-(2-(2-(5-Methyl-2-((1-methyl-1H-pyrazol-4-yl)amino)pyrimidin-4-yl)ethyl)phenyl)propanamide], the figures for the IC50 in assay [1] and in assay [2] were 0.015 µM and 0.526 µM, respectively.

Take `COc1ccc(Nc2ncc(C(F)(F)F)c(CCc3ccccc3C3(C(N)=O)CC3)n2)cn1` [Compound 64, 1-(2-(2-(2-((6-Methoxypyridin-3-yl)amino)-5-(trifluoromethyl)pyrimidin-4-yl)ethyl)phenyl)cyclopropanecarboxamide]: the results for the IC50 in assay [1] and in assay [2] were 0.008 µM and 0.394 µM, respectively.

As to `NC(=O)C1(c2ccccc2CCc2nc(Nc3cnn(C4CCNCC4)c3)ncc2C(F)(F)F)CC1` [Compound 66, 1-(2-(2-(2-((1-(Piperidin-4-yl)-1H-pyrazol-4-yl)amino)-5-(trifluoromethyl)pyrimidin-4-yl)ethyl)phenyl)cyclopropanecarboxamide], in assay [1], the IC50 was 0.007 µM.

For `CN1CCC(n2cc(Nc3ncc(C(F)(F)F)c(CCc4ccccc4C4(C(N)=O)CC4)n3)cn2)CC1` [Compound 67, 1-(2-(2-(2-((1-(1-Methylpiperidin-4-yl)-1H-pyrazol-4-yl)amino)-5-(trifluoromethyl)pyrimidin-4-yl)ethyl)phenyl)cyclopropanecarboxamide], the IC50 in assay [1] was found to be 0.007 µM.

For `CN1CCC(c2ccc(Nc3ncc(C(F)(F)F)c(CCc4ccccc4C4(C(N)=O)CC4)n3)cn2)CC1` [Compound 69, 1-(2-(2-(2-((6-(1-Methylpiperidin-4-yl)pyridin-3-yl)amino)-5-(trifluoromethyl)pyrimidin-4-yl)ethyl)phenyl)cyclopropanecarboxamide], the IC50 in assay [1] was 0.063 µM.

Regarding `CC(N)c1ccc(Nc2ncc(C(F)(F)F)c(CCc3ccccc3C3(C(N)=O)CC3)n2)cc1` (stereo not drawn) [Compound 70A, 1-(2-(2-(2-(4-(1-Aminoethyl)phenylamino)-5-(trifluoromethyl)pyrimidin-4-yl)ethyl)phenyl)cyclopropanecarboxamide], the IC50 in assay [1] was 0.022 µM.

As to `CC(=O)NC(C)c1ccc(Nc2ncc(C(F)(F)F)c(CCc3ccccc3C3(C(N)=O)CC3)n2)cc1` (stereo not drawn) [Compound 71, 1-(2-(2-(2-(4-(1-Acetamidoethyl)phenylamino)-5-(trifluoromethyl)pyrimidin-4-yl)ethyl)phenyl)cyclopropanecarboxamide], the IC50 in assay [1] stood at 0.01 µM.

On to `NC(=O)C1(c2ccccc2CCc2nc(Nc3cnn(CCO)c3)ncc2Cl)CC1` [Compound 76], for which, in assay [1], the IC50 was 0.004 µM.

`COCCn1cc(Nc2ncc(Cl)c(CCc3ccccc3C3(C(N)=O)CC3)n2)cn1` [Compound 77]: the half-inhibitory concentration (IC50) in assay [1] came to 0.003 µM.

What is called IC50 is the concentration that inhibits the measured activity by half.
